Data from US20240382409A1, “COMPOSITION FOR ANTI-AGING AND SKIN IMPROVEMENT, COMPRISING COMPLEX OF INDIAN GOOSE-BERRY EXTRACT AND BARLEY SPROUT EXTRACT (lB COMPLEX) AS ACTIVE INGREDIENT” (HLSCIENCE CO., LTD, priority 2021, published 2024).
In brackets after ≈: the same amount, converted by molar mass.

Assay: Anti-oxidation test: DPPH radical scavenging activity
Assay type: biochemical
Details: positive control
Description: In order to investigate the anti-oxidant effect using Examples 1 to 7 and Comparative examples 1 to 2, the DPPH (2,2-diphenyl-1-picryl hydrazyl) radical scavenging activity was evaluated.
The Examples 1 to 7 and Comparative examples 1 to 2 were mixed with 55 μM DPPH solution 450 μl by concentration and then reacted at 4° C. for 30 minutes. After completing the reaction, each sample was placed in a 96-well plate and the absorbance of samples was measured at 520 nm using a micro-plate reader. Then, a sample untreated group was used as a control group, and the free radical scavenging activity (%) of the sample was calculated as Equation 1 below.
Then, as a positive control scavenging radicals, ascorbic acid was used, and the concentration of ascorbic acid when the free radical scavenging activity was 50% was shown as 1.63 μg/mL.
IC50 means the concentration of sample when the free radical scavenging activity of the treated sample is 50%. Table 5 above summarizes the free radical scavenging activity in 5 μg/mL of each sample. […] It could be confirmed that the DPPH radical scavenging activity of Example 5 was the most excellent among them.

IC50 (concentration when the free radical scavenging activity is 50%): 1.63 µg/mL (≈ 9.25 µM)
SMILES: O=C1O[C@H]([C@@H](O)CO)C(O)=C1O [Ascorbic acid, ascorbic acid]
